Test results as given in ChEMBL document CHEMBL1275340, “BACE1 inhibitory activities of enantiomerically pure, variously substituted N-(3-(4-benzhydrylpiperazin-1-yl)-2-hydroxypropyl) arylsulfonamides” (Bioorg Med Chem, 2010).

target: Beta-secretase 1 (Homo sapiens, UniProt P56817); test: Inhibition of BACE1 by fluorescence assay
Sequence (P56817 whole entry): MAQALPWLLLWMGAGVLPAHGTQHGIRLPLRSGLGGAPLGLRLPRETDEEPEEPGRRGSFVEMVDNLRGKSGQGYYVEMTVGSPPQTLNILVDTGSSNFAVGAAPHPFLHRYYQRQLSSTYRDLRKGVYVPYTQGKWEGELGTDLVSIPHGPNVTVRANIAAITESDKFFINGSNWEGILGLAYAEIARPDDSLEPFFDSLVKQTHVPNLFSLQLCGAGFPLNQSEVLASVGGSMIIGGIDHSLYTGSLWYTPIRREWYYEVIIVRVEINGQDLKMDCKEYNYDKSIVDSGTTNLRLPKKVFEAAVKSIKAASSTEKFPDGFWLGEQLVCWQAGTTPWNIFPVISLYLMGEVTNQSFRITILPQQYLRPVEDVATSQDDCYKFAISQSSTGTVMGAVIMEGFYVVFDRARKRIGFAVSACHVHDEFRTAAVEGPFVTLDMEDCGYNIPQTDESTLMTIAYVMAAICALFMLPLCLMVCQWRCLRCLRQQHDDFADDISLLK

In order of rising IC50:
1. O=S(=O)(c1ccc(Cl)cc1)N(CCc1ccccc1)C[C@@H](O)CN1CCN(C(c2ccccc2)c2ccccc2)CC1  1.9 µM
2. O=S(=O)(c1ccc(Cl)cc1)N(CCc1ccccc1)C[C@H](O)CN1CCN(C(c2ccccc2)c2ccccc2)CC1  2.3 µM
3. O=S(=O)(c1ccc(Cl)c(Cl)c1)N(CC1CC1)C[C@@H](O)CN1CCN(C(c2ccccc2)c2ccccc2)CC1  4.7 µM
4. O=S(=O)(c1ccccc1)N(CCc1ccccc1)C[C@H](O)CN1CCN(C(c2ccccc2)c2ccccc2)CC1  5.1 µM
5. O=S(=O)(c1ccc(Cl)c(Cl)c1)N(CC1CC1)C[C@H](O)CN1CCN(C(c2ccccc2)c2ccccc2)CC1  5.4 µM
6. O=S(=O)(c1ccc(Cl)cc1)N(Cc1ccccc1)C[C@@H](O)CN1CCN(C(c2ccccc2)c2ccccc2)CC1  5.4 µM
7. O=S(=O)(c1ccc(Cl)cc1)N(Cc1ccccc1)C[C@H](O)CN1CCN(C(c2ccccc2)c2ccccc2)CC1  6.3 µM
8. O=S(=O)(c1ccccc1)N(CCc1ccccc1)C[C@@H](O)CN1CCN(C(c2ccccc2)c2ccccc2)CC1  6.9 µM
